Laboratory results: patent US4489096A, “Quinone compounds, their production and use” (Takeda Chemical Industries, Ltd., priority 1982, dated 1984)

Key:
[1] = tested on: SRS-A generation and release; assay: Inhibitory effect on generation and release of SRS-A (sensitized guinea pig lung fragments, antigen egg white albumin); type: cell-based, guinea pigs (Hartley strain); conditions: Cavia porcellus; 10^-6 M test compound; number of experiments 3; lung fragments from sensitized guinea pigs
Method: The compounds obtained in accordance with the invention were assayed for the inhibitory effect on the generation of SRS-A by the method of Orange and Moore [J. Immunol., vol. 116, page 392 (1976)]. Thus, the test compound and antigen (egg white albumin) were simultaneously added to the lung fragments from guinea pigs (Hartley strain, male and female, weighing 300-350 g) sensitized with egg white albumin as the antigen. The quantity of SRS-A generated and released on that occasion was determined by the method of Brocklehurst [J. Physiol., vol. 151, pages 416-435 (1960)].

[2] = tested on: 5-lipoxygenase products (5-HETE) in RBL-1 cells; assay: Inhibition of 5-lipoxygenase products in RBL-1 cells (5-HETE production, HPLC); type: cell-based; conditions: Rattus norvegicus, 20 min, arachidonic acid + A-23187, 37° C., read-out: Percent inhibition of generation and release of 5-HETE; for inhibition at 10 µM: 10^-5 M test compound; for inhibition at 1 µM: 10^-6 M test compound
Method: RBL-1 cells (rat basophilic leukemia cells) (10^7 cells) were suspended in 0.5 ml of MCM (mast cell medium), the test solution (composed of 0.5 ml MCM, 50 μg arachidonic acid, 10 μg A-23187 and 10^-6 M or 10^-5 M quinone compound) was added, and the mixture was incubated at 37° C. for 20 minutes. Thereafter, 4 ml of ethanol and 1,4-dimethoxy-2-methyl-3-(3-methoxypropyl)naphthalene (internal standard) were added, and the mixture was shaken well, then allowed to stand at room temperature for 10 minutes, and centrifuged at 2,000 revolutions per minute for 10 minutes. The supernatant was collected and concentrated to about 200 μl under reduced pressure. A mixed solvent for high performance liquid chromatography [CH3 CN (1500)-CH3 OH (500)-water (1100)-acetic acid (2), adjusted to pH 5.6 with aqueous ammonia] was added to the concentrate to make up to 1 ml. A 200-μl portion of this solution was subjected to high performance liquid chromatography for assaying 5-HETE (5-hydroxyeicosatetraenoic acid).
The percentage of inhibition of 5-HETE production (IE) is expressed by (1-b/a)×100, where a is the peak height or area corrected relative to the internal standard peak for the quinone compound-free (control) test solution and b is the peak height or area corrected in relation to the internal standard peak for the quinone compound-containing test solution.

| Structure (SMILES) | inhibition at 1 µM [1] [%] | inhibition at 10 µM [2] [%] | inhibition at 1 µM [2] [%] |
| --- | --- | --- | --- |
| CC1=C(C)C(=O)C(CCCCC#CCCCC#CC=O)=C(C)C1=O [Ia-1] | 59 ± 15 | 83.5 | 71.6 |
| CCCCCC#CCC#CCC#CCC#CCCCC(=O)O [ETYA, 5,8,11,14eicosatetraynoic acid, reference compound] |  | 39.4 | 35.9 |
| COC1=C(OC)C(=O)C(CCCCC#CCCCC#CC(=O)O)=C(C)C1=O [Ia-4] | 61 ± 8 | 85.4 | 70.6 |
| COC1=C(OC)C(=O)C(CCCCC#CCCCC#CC=O)=C(C)C1=O [Ia-2] | 66 ± 6 | 84.3 | 72.3 |
| CC1=C(C)C(=O)C(CCCCC#CCCCC#CC(=O)O)=C(C)C1=O [Ia-3, 2,3,5-trimethyl-6-(11-carboxyundeca-5,10-diynyl)-1,4-benzoquinone] | 58 ± 6 | 86.7 | 75.3 |
